In US12441730B2, “PRMT5 inhibitors” (Merck Sharp & Dohme LLC, priority 2019, dated 2025) one finds EC50 data, which are given here for 21 compounds.

Assay [1] relates to symmetric dimethylation of arginine (SDMA) of PRMT5 substrates in MCF-7 cells. In words: PRMT5 Cell Target Engagement (TE) Assay. The class given is cell-based. Conditions: 3 days treatment, SDMA high content imaging. In outline: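 Readout is single-cell nuclear symmetric-dimethylarginine immunofluorescence (Alexa488), normalized to DMSO-treated cells. Compounds were applied to MCF-7 cells for 3 days at 37 °C, top concentration 10000 nM in 1:3 steps over ten points; curves fitted with 4-parameter robust fit.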

The target of assay [2] is T1, Full-length (FL)-PRMT5-MEP50 enzyme complex (Homo sapiens, UniProt O14744).
T1 construct: Full-length (FL)-PRMT5-MEP50 enzyme complex (recombinant proteins from baculovirus-transfected Sf21 cells: FL-PRMT5; MW=73837 kDa and FL-MEP50; MW=38614); made in house; host or cells: baculovirus-transfected Sf21 cells
T1 sequence (O14744 whole entry): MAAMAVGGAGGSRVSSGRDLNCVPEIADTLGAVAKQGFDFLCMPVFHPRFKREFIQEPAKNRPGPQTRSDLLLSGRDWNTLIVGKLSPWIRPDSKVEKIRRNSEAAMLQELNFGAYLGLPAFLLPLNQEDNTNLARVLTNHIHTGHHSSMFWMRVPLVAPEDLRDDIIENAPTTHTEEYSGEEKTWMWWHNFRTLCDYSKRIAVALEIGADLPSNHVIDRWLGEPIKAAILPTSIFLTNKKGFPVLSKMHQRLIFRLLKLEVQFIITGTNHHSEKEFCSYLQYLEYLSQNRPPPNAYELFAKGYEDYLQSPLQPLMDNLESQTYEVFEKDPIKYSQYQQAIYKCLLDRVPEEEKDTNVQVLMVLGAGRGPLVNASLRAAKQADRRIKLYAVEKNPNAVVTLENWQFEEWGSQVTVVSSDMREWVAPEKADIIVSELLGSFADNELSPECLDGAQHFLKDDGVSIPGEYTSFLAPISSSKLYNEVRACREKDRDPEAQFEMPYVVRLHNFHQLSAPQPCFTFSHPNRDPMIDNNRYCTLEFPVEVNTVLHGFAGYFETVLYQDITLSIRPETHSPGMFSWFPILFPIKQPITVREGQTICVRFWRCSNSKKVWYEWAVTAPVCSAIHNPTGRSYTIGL
T1 sequence (Q9BQA1 whole entry partner): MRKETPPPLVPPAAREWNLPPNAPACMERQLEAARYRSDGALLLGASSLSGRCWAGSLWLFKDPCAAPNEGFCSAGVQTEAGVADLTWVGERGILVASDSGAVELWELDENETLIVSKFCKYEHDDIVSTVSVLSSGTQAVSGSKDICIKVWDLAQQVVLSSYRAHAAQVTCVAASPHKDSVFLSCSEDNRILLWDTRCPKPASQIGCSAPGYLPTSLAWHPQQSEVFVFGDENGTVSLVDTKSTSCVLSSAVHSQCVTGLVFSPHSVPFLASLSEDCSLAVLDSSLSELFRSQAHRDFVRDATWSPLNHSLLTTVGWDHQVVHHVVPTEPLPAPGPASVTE
The assay can be described thus: PRMT5-MEP50 Enzyme Methylation Assay (Version A). The assay is classed as biochemical. In outline:
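Compound was pre-incubated with enzyme for 60 min, then reacted 150 min at 37° C. at final 1.0 nM PRMT5-MEP50, 15 μM SAM and 75 nM biotinylated H4R3(Me1) peptide, in 50 mM Bicine pH 8.0 with 1% DMSO. SAMDI mass-spectrometric readout of Me1→Me2 conversion. EC50 from 4- or 7-parameter regression.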

Where [3] appears, read: single EC50 = 4 parameter single site sigmoidal fit, EC50 1 = first value of 7 parameter biphasic fit, read-out: Enzyme Methylation Assay Version A (EC50 or EC50 1).
The mark [4] stands for this setting: second value of 7 parameter biphasic fit, read-out: Enzyme Methylation Assay Version A (EC50 2).

Read-outs that look alike come from different tables or passages of the source.

By EC50 is commonly meant the concentration needed to bring the measured effect to its halfway point. Regarding `CN1CCn2cc(C(=O)N3CC[C@]4(Cc5ccccc5CN4)[C@H](O)C3)nc2C1` [Example 59, [(3R,3′R)-3′-hydroxy-1,4-dihydro-1′H,2H-spiro[isoquinoline-3,4′-piperidin]-1′-yl](7-methyl-5,6,7,8-tetrahydroimidazo[1,2-a]pyrazin-2-yl)methanone], the EC50 in assay [1] (Homo sapiens, MCF7, 72 h) was 6100 nM; in assay [2] (setting [3]), 20.2 nM.
On to `O=C(c1cn2c(n1)C(C1CCOC1)CC(C(F)(F)F)C2)N1CC[C@]2(Cc3ccccc3CN2)[C@H](O)C1` (single isomer, unassigned) [Example 163, ((3R,3′R)-3′-hydroxy-1,4-dihydro-2H-spiro[isoquinoline-3,4′-piperidin]-1′-yl)((6S,8S or 6R,8R)-8-((S or R)-tetrahydrofuran-3-yl)-6-(trifluoromethyl)-5,6,7,8-tetrahydroimidazo[1,2-a]pyridin-2-yl)methanone], for which the half-maximal effective concentration (EC50) in assay [1] was 1590 nM; in assay [2] (setting [4]), 36700 nM; in assay [2] (setting [3]), 96.6 nM.
In the case of `COC(C)c1cnc2nc(C(=O)N3CC[C@]4(Cc5ccccc5CN4)[C@H](O)C3)cn2c1` (single isomer, unassigned) [Example 137], the results for the EC50 in assay [1], in assay [2] (setting [4]) and in assay [2] (setting [3]) were 124 nM, 251 nM and 1.92 nM, respectively.
As for `CO[C@H](C)c1cc(N2CCn3nccc32)cn2cc(C(=O)N3CC[C@]4(Cc5ccccc5CN4)[C@H](O)C3)nc12` [Example 232, {6-(2,3-dihydro-1H-imidazo[1,2-b]pyrazol-1-yl)-8-[(1R)-1-methoxyethyl]imidazo[1,2-a]pyridin-2-yl}[(3R,3′R)-3′-hydroxy-1,4-dihydro-1′H,2H-spiro[isoquinoline-3,4′-piperidin]-1′-yl]methanone], the EC50 in assay [1] (Homo sapiens, MCF7, 72 h) was 67.3 nM; in assay [2] (setting [3]), 5 nM.
With `O=C(c1cn2cc(Br)ncc2n1)N1CC[C@]2(Cc3ccccc3CN2)[C@H](O)C1` [Example 42, (6-bromoimidazo[1,2-a]pyrazin-2-yl)((3R,3’R)-3′-hydroxy-1,4-dihydro-2H-spiro[isoquinoline-3,4′-piperidin]-1′-yl)methanone], the concentration for a half-maximal effect (EC50) in assay [1] (Homo sapiens, MCF7, 72 h) stood at 24.9 nM; in assay [2] (setting [4]), 3240 nM; in assay [2] (setting [3]) it was 5.35 nM.
As for `O=C(c1cn2cc(F)ccc2n1)N1CC[C@]2(Cc3ccccc3CN2)[C@H](O)C1` [Example 38, (6-fluoroimidazo[1,2-a]pyridin-2-yl)((3R,3’R)-3′-hydroxy-1,4-dihydro-2H-spiro[isoquinoline-3,4′-piperidin]-1′-yl)methanone], the EC50 in assay [1] (Homo sapiens, MCF7, 72 h) came out at 16.2 nM; in assay [2] (setting [4]), 2460 nM; in assay [2] (setting [3]), 3.84 nM.
As to `CN1CC(C2CC2)Cn2cc(C(=O)N3CC[C@]4(Cc5ccccc5CN4)[C@H](O)C3)nc21` (single isomer, unassigned) [Example 139], the EC50 in assay [1] came to 212 nM; in assay [2] (setting [4]) it was 767 nM; in assay [2] (setting [3]), 8.19 nM.
Regarding `O=C(c1cn2cc(Br)nc(OC3CCOC3)c2n1)N1CC[C@]2(Cc3ccccc3CN2)[C@H](O)C1` (single isomer, unassigned) [Example 99, (6-bromo-8-(((S or R)(tetrahydrofuran-3-yl)oxy)imidazo[1,2-a]pyrazin-2-yl)((3R,3′R)-3′-hydroxy-1,4-dihydro-2H-spiro[isoquinoline-3,4′-piperidin]-1′-yl)methanone], the results for the EC50 in assay [1], in assay [2] (setting [4]) and in assay [2] (setting [3]) were 7.8 nM, 147 nM and 0.427 nM, respectively.
The matching figures for `N#CCCC1CC(C(F)(F)F)Cn2cc(C(=O)N3CC[C@]4(Cc5ccccc5CN4)[C@H](O)C3)nc21` (single isomer, unassigned) [Example 164, 3-((6R,8S or 6S,8R)-2-((3R,3′R)-3′-hydroxy-1,4-dihydro-2H-spiro[isoquinoline-3,4′-piperidine]-1′-carbonyl)-6-(trifluoromethyl)-5,6,7,8-tetrahydroimidazo[1,2-a]pyridin-8-yl)propanenitrile]: 205 nM, 4620 nM and 4.83 nM.
Turning to `CO[C@H](C)c1cc(N2Cc3cnn(C)c3C2)cn2cc(C(=O)N3CC[C@]4(Cc5ccccc5CN4)[C@H](O)C3)nc12` [Example 231, [(3R,3′R)-3′-hydroxy-1,4-dihydro-1′H,2H-spiro[isoquinoline-3,4′-piperidin]-1′-yl]{8-[(1R)-1-methoxyethyl]-6-(1-methyl-4,6-dihydropyrrolo[3,4-c]pyrazol-5(1H)-yl)imidazo[1,2-a]pyridin-2-yl}methanone], the EC50 in assay [1] (Homo sapiens, MCF7, 72 h) turned out to be 66.4 nM; in assay [2] (setting [3]), 11.3 nM.
As for `COC(C)c1cc(Br)c2nc(C(=O)N3CC[C@]4(Cc5ccccc5CN4)[C@H](O)C3)cn2c1` (single isomer, unassigned) [Example 61], the EC50 in assay [1] amounted to 16.9 nM; in assay [2] (setting [4]), 422 nM; in assay [2] (setting [3]), 0.669 nM.
With `CO[C@H](C)c1cc(N2CC3(CCCO3)C2)cn2cc(C(=O)N3CC[C@]4(Cc5ccccc5CN4)[C@H](O)C3)nc12` [Example 236, [(3R,3′R)-3′-hydroxy-1,4-dihydro-1′H,2H-spiro[isoquinoline-3,4′-piperidin]-1′-yl]{8-[(1R)-1-methoxyethyl]-6-(5-oxa-2-azaspiro[3.4]oct-2-yl)imidazo[1,2-a]pyridin-2-yl}methanone], the EC50 in assay [1] (Homo sapiens, MCF7, 72 h) was determined as 20.6 nM; in assay [2] (setting [3]), 7.09 nM.
As to `O=C(c1cn2cc(Cl)cnc2n1)N1CC[C@]2(Cc3ccccc3CN2)[C@H](O)C1` [Example 3, (6-chloroimidazo[1,2-a]pyrimidin-2-yl)((3R,3′R)-3′-hydroxy-1,4-dihydro-2H-spiro[isoquinoline-3,4′-piperidin]-1′-yl)methanone], the EC50 in assay [1] (Homo sapiens, MCF7, 72 h) was 14.5 nM; in assay [2] (setting [4]) it was 918 nM; in assay [2] (setting [3]), 1.45 nM.
The corresponding values for `CN1CCC(Oc2nc(Br)cn3cc(C(=O)N4CC[C@]5(Cc6ccccc6CN5)[C@H](O)C4)nc23)C1=O` (single isomer, unassigned) [Example 94, (R or S)-3-((6-bromo-2-((3R,3′R)-3′-hydroxy-1,4-dihydro-2H-spiro[isoquinoline-3,4′-piperidine]-1′-carbonyl)imidazo[1,2-a]pyrazin-8-yl)oxy)-1-methylpyrrolidin-2-one] are 19.7 nM, 316 nM and 0.826 nM.
Regarding `CO[C@H](C)c1cc(-c2conc2C)cn2cc(C(=O)N3CC[C@]4(Cc5ccccc5CN4)[C@H](O)C3)nc12` [Example 246, [(3R,3′R)-3′-hydroxy-1,4-dihydro-1′H,2H-spiro[isoquinoline-3,4′-piperidin]-1′-yl]{8-[(1R)-1-methoxyethyl]-6-(3-methyl-4-isoxazolyl)imidazo[1,2-a]pyridin-2-yl}methanone], the EC50 in assay [1] (Homo sapiens, MCF7, 72 h) is 6.31 nM; in assay [2] (setting [3]) it was 0.977 nM.
With `CO[C@H](C)c1cc(-c2ccnn2C(C)C)cn2cc(C(=O)N3CC[C@]4(Cc5ccccc5CN4)[C@H](O)C3)nc12` [Example 243, [(3R,3′R)-3′-hydroxy-1,4-dihydro-1′H,2H-spiro[isoquinoline-3,4′-piperidin]-1′-yl]{6-(1-isopropyl-1H-pyrazol-5-yl)-8-[(1R)-1-methoxyethyl]imidazo[1,2-a]pyridin-2-yl}methanone], the EC50 was 3.59 nM in assay [1] (Homo sapiens, MCF7, 72 h) and 1.17 nM in assay [2] (setting [3]).
As to `Cc1cc2ncc(C(=O)N3CC[C@]4(Cc5ccccc5CN4)[C@H](O)C3)c(C)n2n1` [Example 181, (2,7-dimethylpyrazolo[1,5-a]pyrimidin-6-yl)((3R,3′R)-3′-hydroxy-1,4-dihydro-2H-spiro[isoquinoline-3,4′-piperidin]-1′-yl)methanone], the concentration giving a half-maximal response (EC50) in assay [1] (Homo sapiens, MCF7, 72 h) is 924 nM; in assay [2] (setting [4]), 3980 nM; in assay [2] (setting [3]) it was 20.9 nM.
On to `Cc1nn(C)c2[nH]c(C(=O)N3CC[C@]4(Cc5ccccc5CN4)[C@H](O)C3)cc(=O)c12` [Example 191, 6-{[(3R,3′R)-3′-hydroxy-1,4-dihydro-1′H,2H-spiro[isoquinoline-3,4′-piperidin]-1′-yl]carbonyl}-1,3-dimethyl-1,7-dihydro-4H-pyrazolo[3,4-b]pyridin-4-one], for which the EC50 was ≥ 10000 nM in assay [1] (Homo sapiens, MCF7, 72 h) and 2880 nM in assay [2] (setting [3]).
`N#CC1(c2cnc3nc(C(=O)N4CC[C@]5(Cc6ccccc6CN5)[C@H](O)C4)cn3c2)CC12CC2` (single isomer, unassigned) [Example 83]: the results for the EC50 in assay [1], in assay [2] (setting [4]) and in assay [2] (setting [3]) were 90.8 nM, 3160 nM and 3.28 nM, respectively.
Take `COCc1cc(C)cn2cc(C(=O)N3CC[C@]4(Cc5ccccc5CN4)[C@H](O)C3)nc12` [Example 113, ((3R,3′R)-3′-hydroxy-1,4-dihydro-2H-spiro[isoquinoline-3,4′-piperidin]-1′-yl)(8-(methoxymethyl)-6-methylimidazo[1,2-a]pyridin-2-yl)methanone]: the EC50 in assay [1] (Homo sapiens, MCF7, 72 h) was 17.2 nM; in assay [2] (setting [4]), 339 nM; in assay [2] (setting [3]), 0.682 nM.
Consider `COC(C)c1cc(C)c2nc(C(=O)N3CC[C@]4(Cc5ccccc5CN4)[C@H](O)C3)cn2c1` (single isomer, unassigned) [Example 123], for which the values for the concentration giving a half-maximal response (EC50) in assay [1], in assay [2] (setting [4]) and in assay [2] (setting [3]) were 11.8 nM, 182 nM and 0.378 nM, respectively.
